Tests used:
[1] = system: S. epidermidis ATCC 35984; assay: Derivatives combined with vancomycin or cefazolin (FIC index); type: cell-based; settings: S. epidermidis ATCC 35984
Text: Combination antimicrobial therapy is widely used to take advantage of different mechanisms of action. It may potentiate the effect of individual antimicrobial agents by synergic action (Bijnsdorp et al. [2011]; Cokol et al. [2011]). The glycopeptide antibiotics, such as vancomycin, can bind the peptidoglycan side chains in the cell wall and prevent cross-linking during cell wall synthesis. Vancomycin has been considered to be one of the most reliable therapeutic agents against staphylococcal infections, but it is unable to clear biofilms even at high concentration (128 mg/l) (Climo et al. [1999]; Darouiche et al. [1994]; Tenover et al. [2001]). […] YycGF also plays an important role in the synthesis of peptidoglycan in B. subtilis and S. aureus (Bisicchia et al. [2007]; Dubrac and Msadek [2004]). In a preliminary study, we assessed the effects of the combined application of the derivatives with vancomycin and cefazolin against S. epidermidis ATCC 35984 according to the method of Odds ([2003]) (Cottagnoud et al. [2003]). […] No antagonism was observed between the derivatives and vancomycin or cefazolin (Table S1).
17 Table S1. The derivatives combined with vancomycin or cefazolin against S. epidermidis
Derivatives Antibiotics MIC (mg/L) FICIa Synergyb
Derivative Antibiotic In combination
alone alone (Derivative/Antibiotic)
19 a The FICI was calculated as FIC indexes= (MICderivative A in combination/MICderivative A
20 alone)+(MICantibiotic B in combination/MIC antibiotic B alone).
21 b The interaction between the two antibacterials is noted as follows: FIC index≤0.5,
22 Synergy (+); 0.5<FIC index≤4 (-), No interaction; FIC≥4.0, Antagonism.

[2] = system: 24-h biofilms of S. epidermidis ATCC 35984; assay: Rabbit subcutaneous S. epidermidis biofilm infection model; type: in vivo, New Zealand White rabbits; settings: vancomycin 128 mg/l, local injection at 0, 24, 48 h; 72 h
Method: To test the effectiveness in vivo of H2-74 and H2-81, 24-h biofilms of S. epidermidis grown on polyethylene disks were imbedded subcutaneously into the New Zealand White rabbits and treated with the derivatives for 72 h in a modification of the method used previously (He et al. [2011]). Disks were cut from polyethylene 96-well plates (8 mm diameter, 1 mm thickness), sterilized with 75 % ethanol and placed in a Petri dish (100 mm diameter). An overnight culture of S. epidermidis ATCC 35984 (20 ml) was inoculated into the dish and incubated at 37 °C for 24 h. The disks covered with biofilms were then implanted subcutaneously in female New Zealand White rabbits (2.0–2.5 kg) that had been anesthetized with pentobarbital sodium (5 mg/kg i.v.). Four incisions (10 mm) were made on the back of the rabbit along the spine bilaterally after removal of fur, and the sub cutis was carefully dissected to form a 2-cm × 3-cm cavity. Two biofilm-covered polyethylene disks were implanted into each cavity, and to minimize the effect of between-animal variation, four different treatments were given locally to each rabbit.
Vancomycin (128 mg/l) and 0.1 % DMSO were administered as the controls. Twenty-four hours after the last treatment, the rabbits were euthanized and the implants were taken out with sterile forceps. Biofilms were scraped from the disks, and the viable bacteria were determined by CFU counting, as previously described (He et al. [2011]). All animals were housed and used in compliance with the guidelines of the Institute of Animal Care and Use Committee, and the protocol was approved by the committee.

[3] = system: mature (24-h-old) biofilms of S. epidermidis ATCC 35984; assay: Bacterial viability in mature biofilms by CLSM with Live/Dead staining; type: cell-based; settings: Staphylococcus epidermidis, ATCC35984, 16 h, read-out: proportion of viable cells in mature biofilms
Method: A diluted overnight culture of the bacteria was inoculated into cell culture glass bottom dishes (WPI, USA) and incubated at 37 °C for 24 h. […] The biofilms were washed with PBS and stained with SYTO9 and propidium iodide (PI), both of which were used at a concentration of 1 μM. SYTO9-stained live cells and PI-stained cells dead in biofilms were visualized by a Leica TCS SP5 confocal laser scanning microscope with a ×63 1.4-NA oil immersion objective. Three-dimensional biofilm images were created by IMARIS 7.0.0 software (Bitplane).

| Compound | MIC Antibiotic alone [1] [µg/mL] | viable bacteria recovered from implanted disks [2] [log10 CFU/cm^2] | viability at 128 µg/mL [3] [%] |
| --- | --- | --- | --- |
| Cc1nnc(SCC2=C(C(=O)O)N3C(=O)[C@@H](NC(=O)Cn4cnnn4)[C@H]3SC2)s1 [cefazolin, reference compound] | 8 |  |  |
| CN[C@H](CC(C)C)C(=O)N[C@H]1C(=O)N[C@@H](CC(N)=O)C(=O)N[C@H]2C(=O)N[C@H]3C(=O)N[C@H](C(=O)N[C@H](C(=O)O)c4cc(O)cc(O)c4-c4cc3ccc4O)[C@H](O)c3ccc(c(Cl)c3)Oc3cc2cc(c3O[C@@H]2O[C@H](CO)[C@@H](O)[C@H](O)[C@H]2O[C@H]2C[C@](C)(N)[C@H](O)[C@H](C)O2)Oc2ccc(cc2Cl)[C@H]1O [vancomycin, reference compound] | 4 | 5.21 ± 0.24 | 88.6 |

From PMC4057637, “Efficacy of novel antibacterial compounds targeting histidine kinase YycG protein” (Applied Microbiology and Biotechnology, 2014)
